{"source": "patent US9107928B2", "about": "“Compositions and methods for treating ophthalmic disorders” (Dyax Corp., priority 2006, dated 2015)", "type_in_all_cases": "in vivo", "key": {"[1]": {"system": "pig model of RVO (branch retinal vein occlusion)", "test": "Spontaneous retinal vein reperfusion 24 h after RVO in the pig", "conditions": "21.2 μg/eye intra-vitreally immediately following RVO", "method": "(§1) Mixed breed (Large White×Landrace×Pietrain) female pigs weighing 50 to 60 kg aged of 5 to 6 months were used. Following intramuscular injection of ketamine (10 mg/kg), azaperone (2 mg/kg) and atropine (0.02 mg/kg), anesthesia was induced by intravenous sodium thiopental (10 mg/kg). After tracheal intubation, anesthesia was maintained with isoflurane (1-2% in 100% O2) using a Hallowell ventilator (15 to 20 rpm; pressure at 20 cmH2O).\n(§2) Pupil was dilated by tropicamide. Conjunctival disinsertion was followed by a 0.9 mm sclerotomy, 3 mm from the limbus. The fundus was observed using a plano-concave lens and the axial light of the operating microscope (Microscope OPMI 6-C, Zeiss, Germany). Branch retinal vein occlusion (RVO) of the major temporal vein was performed by transvitreal cauterization using a 300 micron probe (GN 300, Aesculap, Tuttlingen, Germany). Completion of the occlusion was assessed by the complete arrest of blood flow upstream of the occlusion site. Both eyes were submitted to RVO.\nAnimals that were submitted to RVO were randomised to receive either the vehicle or the drug (10 to 14 pigs/group). Accordingly, 100 μl of SEQ ID No 23 in solution (dosage of 21.2 μg/eye) or of the corresponding vehicle (saline) was injected intra-vitreally, immediately following RVO."}, "[2]": {"system": "pig model of RVO (branch retinal vein occlusion)", "test": "OCT-measured maximal retinal thickness in a pig model of RVO", "conditions": "21.2 μg/eye intra-vitreally immediately following RVO, 24 h after RVO", "method": "Maximal retina thickness was determined 24 h after RVO from Optical Coherence Tomography images. Values are mean±s.e.mean. Comparison of values was performed by a one-way ANOVA following by a student t-test.\nas §1, §2\nAnimals that were submitted to RVO were randomised to receive either the vehicle or the drug (10 to 14 pigs/group). […]"}, "[3]": {"system": "pig model of RVO (branch retinal vein occlusion)", "test": "Evans Blue dye retinal concentration (extra-cellular retinal oedema) in a pig model of RVO", "conditions": "21.2 μg/eye intra-vitreally immediately following RVO, 24 h following RVO, p<0.01", "method": "The amount of Evans Blue dye concentration into the retinal tissue reflects plasma extravasation and the extent of oedema. Control values represent retina Evans Blue Dye content of 2 eyes that were left non-operated and non-treated whilst sham-operated eyes (n=4) were submitted to the surgical procedure but without occlusion (See Methods). Values are mean±s.e.mean. Comparison of values was performed by a one-way ANOVA following by a student t-test. **, p<0.01\nas §1\nPupil was dilated by tropicamide. […] Completion of the occlusion was assessed by the complete arrest of blood flow upstream of the occlusion site. […]\nAfter OCT measurement, each animal received Evans Blue dye at 45 mg/kg i.v. and venous blood samples (approximately 1 ml) were obtained at 15 minutes intervals for 2 hours. […] Evans Blue dye concentration in plasma samples and in retina tissue was measured by spectrophotometry at both 620 nm and 740 nm."}}, "note": "Where no end group is shown, it is not given here.", "data": [{"sequence": "EAMHSFCAFKADDGPCRAAHPRWFFNIFTRQCEEFIYGGCEGNQNRFESLEECKKMCTRD (cysteine pairing not given here) [SEQ ID No 23]", "values": [{"measurement": "% of reperfused retinal vein at 24 h (spontaneous reperfusion, treated eyes)", "setting": "[1]", "result": 30, "unit": "%"}, {"measurement": "Number of reperfused retinal vein at 24 h", "setting": "[1]; 13 pigs/26 eyes", "result": 8}, {"measurement": "Increase of maximal retinal thickness as measured by OCT", "setting": "[2]", "result": "did not modify the increase of maximal retinal thickness"}, {"measurement": "Reduction of Evans Blue dye retinal concentration (extent of extra-cellular oedema)", "setting": "[3]", "result": 47, "unit": "%"}]}]}
